Laboratory results: patent US6433175B1, “Pyrroloindoles, pyridoindoles and azepinoindoles as 5-ht2c agonists” (Vernalis Research Limited, priority 1998, dated 2002)
Counter-ions that a name gives are not always drawn.

Row | melting point | SMILES
1 | 146 to 147 °C (dec.) | CC(N)Cc1c2n(c3ccc(OCc4ccccc4)cc13)CCC2 (racemic) (as salt: fumarate)
2 | 207 to 208 °C | CC(N)Cc1c2n(c3cccc(Cl)c13)CCC2 (racemic) (as salt: fumarate)
3 | 149 to 151 °C | COc1ccc2c(c1)c(CC(C)NCC1CC1)c1n2CCC1 (racemic) (as salt: hydrochloride)
4 | 210 to 213 °C | COc1ccc2c(c1)c(CC(C)NCC1CCCCC1)c1n2CCC1 (racemic) (as salt: hydrochloride)
5 | 226 to 228 °C | COc1ccc2c(c1)c(CC(C)NCC(C)(C)C)c1n2CCC1 (racemic) (as salt: hydrochloride)
6 | 118 to 121 °C | COc1ccc2c(c1)c(CC(C)NCCC(C)C)c1n2CCC1 (racemic) (as salt: hydrochloride)

Row | SMILES | melting point
7 | COc1ccc2c(c1)c(CC(C)N)c1n2CCC1 (racemic) (as salt: fumarate) [Example 3, (RS)-1-(7-Methoxy-2,3-dihydro-1H-pyrrolo[1,2-a]indol-9-yl)-2-propylamine fumarate] | 194 to 196 °C
8 | Cc1ccc2c(c1)c(CC(C)N)c1n2CCC1 (racemic) (as salt: fumarate) [Example 6, (RS)-1-(7-Methyl-2,3-dihydro-1H-pyrrolo[1,2-a]indol-9-yl)-2-propylamine fumarate] | 138 to 139 °C
9 | CSc1ccc2c(c1)c(CC(C)N)c1n2CCC1 (racemic) (as salt: fumarate) [Example 11, (RS)-1-(7-Methylthio-2,3-dihydro-1H-pyrrolo[1,2-a]indol-9-yl)-2-propylamine fumarate] | 204 to 206 °C (dec.)
10 | CC(N)Cc1c2n(c3ccc(Cl)cc13)CCC2 (racemic) (as salt: hydrochloride) [Example 1, (RS)-1-(7-Chloro-2,3-dihydro-1H-pyrrolo[1,2-a]indol-9-yl)-2-propylamine hydrochloride] | 272 to 273 °C
